Consider one compound from ChEMBL document CHEMBL1131691, “Design and synthesis of simplified sordaricin derivatives as inhibitors of fungal protein synthesis” (Bioorg Med Chem Lett, 1999).

Some results are limits rather than exact numbers.

Test [1] concerns Candida albicans. As to the kind of experiment: Minimum inhibitory concentration Candida albicans 2005E cell growth. Format: functional.
The test system of test [2] is Candida albicans. As to the kind of experiment: Inhibitory concentration against Candida albicans 2005E protein synthesis. Format: functional, organism-based.

As a reminder, the MIC is the smallest concentration in the dilution series that meets the test's criterion for growth inhibition. The low end stands for a more susceptible organism, the high end for a less susceptible organism. By IC50 is commonly meant the concentration at which inhibition is half-maximal. Low readings indicate greater potency in that assay, high ones weaker potency in that assay. For `CC(C)C1=CC2C[C@]3(C=O)C4CCC(C)C4C[C@]2(CO)[C@]13C(=O)O` (some centres not stated) [SORDARICIN], in the test on Candida albicans [1], the minimal inhibitory concentration (MIC) was > 376 µM. In the test on Candida albicans [2], the IC50 was 500 nM.
